The text below walks through data of patent publication US10835533B2, “1 -((3S,4R)-4-(3-fluorophenyl)-1-(2-methoxyethyl)pyrrolidin-3-yl)-3-(4-methyl-3-(2-methylpyrimidin-5-yl)-1-phenyl-1H-pyrazol-5-yl)urea as a TrkA kinase inhibitor” (Array BioPharma Inc., priority 2014, dated 2020).

Series [1] can be described thus: IV clearance, 1 mg/kg IV, monkey. In kind it is in vivo. The note with it: for in vivo/in vitro correction factor: microsomal CLh divided by IV CL; for clearance: plasma, 1 mg/kg IV. On the procedure: In Table 1, the predicted human IV clearance values were calculated from compound concentration-versus-time data in plasma collected from pre-clinical species (mouse, rat, dog and monkey) following 1 mg/kg intravenous (IV) doses. Concentrations of compound in plasma were measured by LC-MS (liquid chromatography-mass spectrometry). AUCinf values (Area under the plasma concentration-time curve for a dosing interval from time 0 extrapolated to infinity) for individual Cp/t curves (concentration of the drug in plasma at any time t) were determined using linear-trapezoidal integration and first order extrapolation from terminal points of the Cp/t curves, and clearance (CL) was calculated using Dose/AUCinf.

Series [2] can be described thus: Liver microsomal clearance, monkey. It is filed as in vitro ADME. The note with it: pH 7.4; Monkey liver microsomes; 1 mg/mL; 20 minutes. The protocol:
The predicted hepatic clearance (CLh) value was calculated by scaling the in vitro half-life (t1/2) for stability of the compound in liver microsomes (1 mg/mL; 20 minutes) using the physical and physiological scaling factors used to predict intrinsic clearance (CLint) and hepatic clearance (CLhep) listed in Table 2 and employed in the following equations: […]
where D is the amount of cytochrome P450-related protein per mass of liver, W is the average mass of liver present per weight of animal, C is the liver microsomal concentration, and Q is the species-dependent hepatic blood flow.
A 100 mM potassium phosphate assay buffer solution (KPB) was prepared as follows. Both KH2PO4 and K2HPO4 were dissolved separately in reagent grade water resulting in final concentrations 100 mM. A 75:25 mixture v/v of K2HPO4:KH2PO4 was prepared and the pH of the solution was adjusted to 7.4 using diluted HCl or diluted NaOH solutions. Stock solutions of Compound 1, Compound 2 and Compound 3 were prepared at 10 mM (active compound) in DMSO. The stock solution was diluted immediately before use to 2.5 μM using the KPB solution to create the working standard. All test compounds were completely soluble in DMSO by visual inspection at room temperature. The NADPH-regenerating solution (NRS) was prepared on the day of analysis by diluting one volume of 17 mg/mL NADP^+ with one volume of 78 mg/mL glucose-6-phosphate (both prepared in KPB, pH 7.4) and 7.9 volumes of 20 mM MgCl2. The final concentrations of NADP^+ and glucose-6-phosphate were 1.7 mg/mL and 7.8 mg/mL, respectively. […]
All calculations were performed using BioAssay Enterprise. The mean peak area ratios were calculated by averaging the peak area ratios (n=2) of Compound 1, Compound 2, Compound 3, and the internal standard for each sample. Percent remaining was calculated by determining the ratio of the peak area ratio at each time point to the peak area ratio of the time-zero samples. The rate of loss of test compound (km) was determined by linear regression of −ln(f(t)) versus time. […] The t1/2 was determined dividing ln(2) by km. […]
For orientation: Liver microsomes are vesicles of endoplasmic reticulum, rich in cytochrome P450 enzymes.

A word on the clearance: it is the volume of plasma or blood freed of the substance per unit of time. As for `COCCN1C[C@@H](NC(=O)Nc2c(C)c(-c3cnc(C)nc3)nn2-c2ccccc2)[C@H](c2cccc(F)c2)C1` [Compound 1, 1-((3S,4R)-4-(3-fluorophenyl)-1-(2-methoxyethyl)pyrrolidin-3-yl)-3-(4-methyl-3-(2-methylpyrimidin-5-yl)-1-phenyl-1H-pyrazol-5-yl)urea], in series [1], the “in vivo/in vitro correction factor” value amounted to 1.65 and the clearance stood at 20 mL/min/kg. Besides, the CLhep predicted at 1 μM in series [2] was 33 mL/min/kg.
As for `COCCN1C[C@@H](NC(=O)Nc2c(C)c(-c3cnc(C)nc3)nn2-c2ccccc2)[C@H](c2ccc(F)c(F)c2)C1` [Compound 2, 1-((3S,4R)-4-(3,4-difluorophenyl)-1-(2-methoxyethyl)pyrrolidin-3-yl)-3-(4-methyl-3-(2-methylpyrimidin-5-yl)-1-phenyl-1H-pyrazol-5-yl)urea], in series [1], the “in vivo/in vitro correction factor” value is recorded as 2.11 and the clearance stood at 18 mL/min/kg. For the same molecule, the CLhep predicted at 1 μM in series [2] is 38 mL/min/kg.
For the molecule `COCCN1C[C@@H](NC(=O)Nc2c(C)c(-c3cnn(C)c3)nn2-c2ccccc2)[C@H](c2ccc(F)cc2)C1` [Compound 3, 1-(1′,4-dimethyl-1-phenyl-1H,1′H-[3,4′-bipyrazol]-5-yl)-3-((3S,4R)-4-(4-fluorophenyl)-1-(2-methoxyethyl)pyrrolidin-3-yl)urea], in series [1], the “in vivo/in vitro correction factor” value was 0.84 and the clearance was 38 mL/min/kg. Moreover, in series [2], the CLhep predicted at 1 μM was 32 mL/min/kg.
